In brackets after ≈: the same amount, converted by molar mass.
Assays:
C57BL/KsJ-db/bdJcl mice [1] = test: Combinational effect with glitazone (pioglitazone) using db/db mice, oral glucose load (Examples 5 and 6); type: in vivo; conditions: single oral administration combined with pioglitazone 10 mg/kg/day oral for 10 days, compared with alone groups
Experimental: The oral glucose load experiments are conducted using C57BL/KsJ-db/bdJcl mice in the conditions with or without the oral administeration of pioglitazone (10 mg/kg/day) for 10 days and with or without a single oral administration of the compound (III).
The same experiment is conducted as that of Example 5 except that the compounds of the Compound Nos. 6, 8, 62, 80, 81, 88, 91, 96, 105, 106, 129, 130, 131 and 132 in Tables 1 and 2 are used instead of the compound (III).

adipose cells of rats = test: Evaluation of the sugar transportation activity (2-[14C(U)]-deoxy-D-glucose incorporation); type: cell-based, Wistar rats; conditions: rat adipose cells
Experimental: 1. Preparation of Adipose Cells of Rats:
After the decapitation and venesection of 6 male Wistar rats (body weight: 150 to 200 g), an incision was made in the abdomen of each rat to extract 6 g in total of epididymal adipose tissues. The tissues were finely cut into 2 mm×2 mm pieces in 6 ml of KRH (Krebs-Ringer Hepes, composition: 130 mM of sodium chloride, 4.7 mM of potassium chloride, 1.2 mM of potassium dihydrogenphosphate, 1.2 mM of magnesium sulfate, 1 mM of calcium chloride and 25 mM of Hepes, pH=7.6) containing 5% of BSA (bovine serum albumin). 24 mg of collagenase (type I) was added thereto and the digestion treatment was conducted for about 40 minutes to obtain about 6 ml of isolated adipose cells. The collagenase was removed by the buffer exchange. 2% BSA/KRH solution was added to the residue for the re-suspension to obtain 45 ml of an adipose cell suspension.
2. Evaluation of the Sugar Transportation Activity:
The sugar transportation activity of the compound (I) of the present invention was evaluated with reference to a method described in a literature [Annual Review of Biochemistry, Vol. 55, p. 1059 (1986)]. In the test, 200 μL of the adipose cell suspension was poured in each polystyrene test tube, 100 μL of the solution of the test substance (by dilution of 10 mg/mL dimethyl sulfoxide solution with KRH) was added thereto, and the obtained mixture was shaken and then cultured at 37° C. for 30 minutes. The sugar transportation activity was evaluated by measuring the quantity of 2-[^14C(U)]-deoxy-D-glucose incorporated per a unit time. Namely, 2-[^14C(U)]-deoxy-D-glucose was added to the adipose cell suspension after the pre-culture (the final concentration: 0.5 μCi/sample). 5 minutes after, cytochalasin B (final concentration: 10 μM) was added to the mixture to terminate the sugar transportation. After forming a dinonyl phthalate layer, the obtained mixture was centrifuged to separate the adipose cells from the buffer. The quantity of 2-[^14C(U)]-deoxy-D-glucose contained in the adipose cell layer was determined with a liquid scintillation counter to determine the quantity of the incorporated sugar. In this evaluation system, when insulin (100 nM) having the effect of reinforcing the sugar transportation was used, the effect was about 7 times as high as that obtained in the insulin-free control group.
The results of the evaluation of the sugar transportation activity obtained by using 100 μg/mL of the compound (I) of the present invention are shown in Table 3. The sugar transportation activity in Table 3 was evaluated on the basis of the reinforcing effect of insulin (100 nM). The sugar transportation activity A in Table 3 was determined in terms of the concentration (EC50: μg/mL) of a test compound, having a reinforcing effect corresponding to 50% on the basis of the reinforcing effect of insulin (100 nM) having a reinforcing effect of 100%.
The symbols in Table 3 are as follows: • No: Compound No. in Tables 1 and 2, and • A: sugar transportation activity.

KK-Ay mice = test: Combinational effect with biguanide (metformin) using KK-Ay mice (Example 4); type: in vivo; conditions: combined with metformin, compared with alone groups, same experiment as Example 3
Experimental: The compound (III) (30 mg/kg) was orally administered to C57BL/KsJ-db/bdJcl mice (10 week age, male) and soon after that, metformin (100 mg/kg) was orally administered. 60 minutes after administration, the blood was taken from their caudal veins to determine the blood glucose level.
The same experiment is conducted as that of Example 3 except that the compounds of the Compound Nos. 6, 8, 62, 80, 81, 88, 91, 96, 105, 106, 129, 130, 131 and 132 in Tables 1 and 2 are used instead of the compound (III), and KK-Ay mice are used instead of db/bd mice.

C57BL/KsJ-db/bdJcl mice [2] = test: Combinational effect with insulin using db/db mice (Examples 7 and 8); type: in vivo; conditions: combined with insulin 0.2 U/kg, compared with alone groups, same experiment as Example 3
Experimental: The compound (III) (30 mg/kg) was orally administered to C57BL/KsJ-db/bdJcl mice (10 week age, male) and soon after that, metformin (100 mg/kg) was orally administered. 60 minutes after administration, the blood was taken from their caudal veins to determine the blood glucose level. The same experiment is conducted as that of Example 3 except that insulin (0.2 U/kg) is used instead of metformin. […] The same experiment is conducted as that of Example 7 except that the compounds of the Compound Nos. 6, 8, 62, 80, 81, 88, 91, 96, 105, 106, 129, 130, 131 and 132 in Tables 1 and 2 are used instead of the compound (III).

GK rats = test: Combinational effect with insulin secretagogue (gliclazide) using GK rats (Example 2); type: in vivo; conditions: combined with gliclazide, compared with alone groups, same experiment as Example 1
Experimental: The compound (II) (100 mg/kg) was orally administered to C57BL/6NCrj mice (11 week age, male) and soon after that, gliclazide (3 mg/kg) was orally administered. After administration, the blood was taken from their caudal veins over time to determine the blood glucose level. Area under the curve of blood glucose level changes until 70 minutes after the administration was set as an index and variations from a control group (Vehicle administered group) were compared.
The same experiment is conducted as that of Example 1 except that the compounds of the Compound Nos. 6, 8, 62, 80, 81, 88, 91, […], 105, 106, 129, 130, 131 and 132 in Tables 1 and 2 are used instead of the compound (II), and GK rats are used instead of normal mice.

[3] = concentration with reinforcing effect of 50% of that of insulin (100 nM) = 100%, 30 min pre-culture at 37° C., 5 min uptake

Molecule: COc1ccccc1[C@@H]1C2=C(CNC2=O)N[C@@H]2CCCC[C@H]2N1C(=O)CC(F)(F)F [Compound 6]
- hypoglycemic action (oral glucose load) (C57BL/KsJ-db/bdJcl mice [1]): remarkable hypoglycemic action
- A: sugar transportation activity (EC50) (adipose cells of rats; [3]): 0.47 µg/mL
- hypoglycemic action (blood glucose level) (KK-Ay mice): remarkable hypoglycemic action
- hypoglycemic action (blood glucose level) (C57BL/KsJ-db/bdJcl mice [2]): remarkable hypoglycemic action
- hypoglycemic action (blood glucose level) (GK rats): remarkable hypoglycemic action

Molecule: COc1ccccc1[C@@H]1C2=C(CNC2=O)N[C@@H]2CCCC[C@H]2N1C(=O)CO [Compound 8]
- hypoglycemic action (oral glucose load) (C57BL/KsJ-db/bdJcl mice [1]): remarkable hypoglycemic action
- A: sugar transportation activity (EC50) (adipose cells of rats; [3]): 2 µg/mL
- hypoglycemic action (blood glucose level) (KK-Ay mice): remarkable hypoglycemic action
- hypoglycemic action (blood glucose level) (C57BL/KsJ-db/bdJcl mice [2]): remarkable hypoglycemic action
- hypoglycemic action (blood glucose level) (GK rats): remarkable hypoglycemic action

Molecule: O=C1NCC2=C1[C@@H](c1ccccc1OC1CC1)N(C(=O)CO)[C@@H]1CCCC[C@H]1N2 [Compound 62]
- hypoglycemic action (oral glucose load) (C57BL/KsJ-db/bdJcl mice [1]): remarkable hypoglycemic action
- A: sugar transportation activity (EC50) (adipose cells of rats; [3]): 0.5 µg/mL
- hypoglycemic action (blood glucose level) (KK-Ay mice): remarkable hypoglycemic action
- hypoglycemic action (blood glucose level) (C57BL/KsJ-db/bdJcl mice [2]): remarkable hypoglycemic action
- hypoglycemic action (blood glucose level) (GK rats): remarkable hypoglycemic action

Molecule: CSc1ccccc1[C@@H]1C2=C(CNC2=O)N[C@@H]2CCCC[C@H]2N1C(C)=O [Compound 80]
- hypoglycemic action (oral glucose load) (C57BL/KsJ-db/bdJcl mice [1]): remarkable hypoglycemic action
- A: sugar transportation activity (EC50) (adipose cells of rats; [3]): 5 µg/mL
- hypoglycemic action (blood glucose level) (KK-Ay mice): remarkable hypoglycemic action
- hypoglycemic action (blood glucose level) (C57BL/KsJ-db/bdJcl mice [2]): remarkable hypoglycemic action
- hypoglycemic action (blood glucose level) (GK rats): remarkable hypoglycemic action

Molecule: CSc1ccccc1[C@@H]1C2=C(CNC2=O)N[C@@H]2CCCC[C@H]2N1C(=O)CO [Compound 81]
- hypoglycemic action (oral glucose load) (C57BL/KsJ-db/bdJcl mice [1]): remarkable hypoglycemic action
- A: sugar transportation activity (EC50) (adipose cells of rats; [3]): 2 µg/mL
- hypoglycemic action (blood glucose level) (KK-Ay mice): remarkable hypoglycemic action
- hypoglycemic action (blood glucose level) (C57BL/KsJ-db/bdJcl mice [2]): remarkable hypoglycemic action
- hypoglycemic action (blood glucose level) (GK rats): remarkable hypoglycemic action

Molecule: CC(=O)N1[C@@H]2CCCC[C@H]2NC2=C(C(=O)NC2)[C@H]1c1ccccc1C [Compound 88]
- hypoglycemic action (oral glucose load) (C57BL/KsJ-db/bdJcl mice [1]): remarkable hypoglycemic action
- A: sugar transportation activity (EC50) (adipose cells of rats; [3]): 5 µg/mL
- hypoglycemic action (blood glucose level) (KK-Ay mice): remarkable hypoglycemic action
- hypoglycemic action (blood glucose level) (C57BL/KsJ-db/bdJcl mice [2]): remarkable hypoglycemic action
- hypoglycemic action (blood glucose level) (GK rats): remarkable hypoglycemic action

Molecule: CCC(=O)N1[C@@H]2CCCC[C@H]2N(C)C2=C(C(=O)NC2)[C@H]1c1ccccc1C [Compound 91]
- hypoglycemic action (oral glucose load) (C57BL/KsJ-db/bdJcl mice [1]): remarkable hypoglycemic action
- A: sugar transportation activity (EC50) (adipose cells of rats; [3]): 0.45 µg/mL
- hypoglycemic action (blood glucose level) (KK-Ay mice): remarkable hypoglycemic action
- hypoglycemic action (blood glucose level) (C57BL/KsJ-db/bdJcl mice [2]): remarkable hypoglycemic action
- hypoglycemic action (blood glucose level) (GK rats): remarkable hypoglycemic action

Molecule: CC(=O)N1[C@@H]2CCCC[C@H]2NC2=C(C(=O)NC2)[C@H]1c1ccccc1C1CC1 [Compound 105]
- hypoglycemic action (oral glucose load) (C57BL/KsJ-db/bdJcl mice [1]): remarkable hypoglycemic action
- A: sugar transportation activity (EC50) (adipose cells of rats; [3]): 0.5 µg/mL
- hypoglycemic action (blood glucose level) (KK-Ay mice): remarkable hypoglycemic action
- hypoglycemic action (blood glucose level) (C57BL/KsJ-db/bdJcl mice [2]): remarkable hypoglycemic action
- hypoglycemic action (blood glucose level) (GK rats): remarkable hypoglycemic action

Molecule: CCC(=O)N1[C@@H]2CCCC[C@H]2NC2=C(C(=O)NC2)[C@H]1c1ccccc1F [Compound 124]
- A: sugar transportation activity (EC50) (adipose cells of rats; [3]): 2 µg/mL

Molecule: O=C1NCC2=C1[C@@H](c1ccccc1F)N(C(=O)C1CC1)[C@@H]1CCCC[C@H]1N2 [Compound 125]
- A: sugar transportation activity (EC50) (adipose cells of rats; [3]): 2 µg/mL

Molecule: CCOCC(=O)N1[C@@H]2CCCC[C@H]2NC2=C(C(=O)NC2)[C@H]1c1ccccc1F [Compound 126]
- A: sugar transportation activity (EC50) (adipose cells of rats; [3]): 2 µg/mL

Molecule: COC(=O)N1[C@@H]2CCCC[C@H]2NC2=C(C(=O)NC2)[C@H]1c1ccccc1F [Compound 127]
- A: sugar transportation activity (EC50) (adipose cells of rats; [3]): 2 µg/mL

Molecule: CC(=O)N1[C@@H]2CCCC[C@H]2NC2=C(C(=O)NC2)[C@H]1c1ccccc1 [Compound 129]
- hypoglycemic action (oral glucose load) (C57BL/KsJ-db/bdJcl mice [1]): remarkable hypoglycemic action
- hypoglycemic action (blood glucose level) (KK-Ay mice): remarkable hypoglycemic action
- hypoglycemic action (blood glucose level) (C57BL/KsJ-db/bdJcl mice [2]): remarkable hypoglycemic action
- hypoglycemic action (blood glucose level) (GK rats): remarkable hypoglycemic action

Molecule: COC(=O)N1[C@@H]2CCCC[C@H]2NC2=C(C(=O)NC2)[C@H]1c1ccccc1 [Compound 133]
- A: sugar transportation activity (EC50) (adipose cells of rats; [3]): 2 µg/mL

Molecule: CC(=O)N1[C@@H]2CCCC[C@H]2NC2=C(C(=O)NC2)[C@H]1c1ccccc1N [Compound 136]
- A: sugar transportation activity (EC50) (adipose cells of rats; [3]): 12 µg/mL

Molecule: COc1ccc([C@@H]2C3=C(CNC3=O)N[C@@H]3CCCC[C@H]3N2C(C)=O)cc1 [Compound 138]
- A: sugar transportation activity (EC50) (adipose cells of rats; [3]): 4.4 µg/mL

Molecule: CC(=O)N1[C@@H]2CCCC[C@H]2NC2=C(C(=O)NC2)[C@H]1c1ccc(Br)cc1 [Compound 139]
- A: sugar transportation activity (EC50) (adipose cells of rats; [3]): 17 µg/mL

Molecule: CCOCC(=O)N1[C@@H]2CCCC[C@H]2NC2=C(C(=O)NC2)[C@H]1c1ccc(Cl)cc1 [Compound 141]
- A: sugar transportation activity (EC50) (adipose cells of rats; [3]): 6 µg/mL

Molecule: CC(=O)N1[C@@H]2CCCC[C@H]2NC2=C(C(=O)NC2)[C@H]1c1ccc(Br)s1 [Compound 144]
- EC50 (adipose cells of rats; [3]): 19 µg/mL (≈ 46.3 µM)

Molecule: insulin [reference compound]
- effect of reinforcing the sugar transportation relative to insulin-free control group (adipose cells of rats; insulin 100 nM): about 7 times
